Results taken from PubChem BioAssay AID2060511 (Molecular Pharmacology Branch, DTP, NCI, 2025).

Tested on: 422866-222-R5-J1-PDC spheroids with HUVEC/MSC, viability
Experiment: Anticancer human tumor 422866-222-R5-J1-PDC patient-derived pancreatic adenocarcinoma cell line growth inhibition [GQUAD]
Settings: for IC50: curve of first compound; for viability, T/C: stronger effect = lower value; active = viability on the fitted dose curve at most 10% of control; inactive = the rest
In short: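 Viability of tumor cells grown as complex spheroids with endothelial and stromal cells, exposed to drug combinations. Top concentration at or near clinical Cmax (else 10 microM), diluted in half-log increments.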

[1] = second compound 0.0316 µM, first compound 0.0316 µM
[2] = second compound 0.0316 µM, first compound 0.1 µM
[3] = second compound 0.0316 µM, first compound 0.316 µM
[4] = second compound 0.0316 µM, first compound 1 µM
[5] = second compound 0.0316 µM, first compound 3.16 µM
[6] = second compound 0.0316 µM, first compound 10 µM
[7] = second compound 0.1 µM, first compound 0.0316 µM
[8] = second compound 0.1 µM, first compound 0.1 µM
[9] = second compound 0.1 µM, first compound 0.316 µM
[10] = second compound 0.1 µM, first compound 1 µM
[11] = second compound 0.1 µM, first compound 3.16 µM
[12] = second compound 0.1 µM, first compound 10 µM
[13] = second compound 0.316 µM, first compound 0.0316 µM
[14] = second compound 0.316 µM, first compound 0.1 µM
[15] = second compound 0.316 µM, first compound 0.316 µM
[16] = second compound 0.316 µM, first compound 1 µM
[17] = second compound 0.316 µM, first compound 3.16 µM
[18] = second compound 0.316 µM, first compound 10 µM
[19] = second compound 1 µM, first compound 0.0316 µM
[20] = second compound 1 µM, first compound 0.1 µM
[21] = second compound 1 µM, first compound 0.316 µM
[22] = second compound 1 µM, first compound 1 µM
[23] = second compound 1 µM, first compound 3.16 µM
[24] = second compound 1 µM, first compound 10 µM
[25] = second compound 3.16 µM, first compound 0.0316 µM
[26] = second compound 3.16 µM, first compound 0.1 µM
[27] = second compound 3.16 µM, first compound 0.316 µM
[28] = second compound 3.16 µM, first compound 1 µM
[29] = second compound 3.16 µM, first compound 3.16 µM
[30] = second compound 3.16 µM, first compound 10 µM
[31] = second compound 10 µM, first compound 0.0316 µM
[32] = second compound 10 µM, first compound 0.1 µM
[33] = second compound 10 µM, first compound 0.316 µM
[34] = second compound 10 µM, first compound 1 µM
[35] = second compound 10 µM, first compound 3.16 µM
[36] = second compound 10 µM, first compound 10 µM
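Also: spheroids exposed to compounds for seven days before reading.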
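For viability, T/C in this document: percent viability relative to DMSO vehicle control taken as 100%.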

COc1cc(C2c3cc4c(cc3C(OC3OC5COC(C)OC5C(O)C3O)C3COC(=O)C23)OCO4)cc(OC)c1O (stereo not drawn) + Cc1cnc(CNC(=O)c2c(=O)c3ccc(N4CCCN(C)CC4)nc3n3c2sc2ccccc23)cn1
> 10 µM: IC50 (second compound 0.1 µM) | IC50 (second compound 0.316 µM) | IC50 (second compound 1 µM) | IC50 (second compound 3.16 µM) | IC50 (second compound 10 µM)
3.77 µM: IC50 (second compound 0.0316 µM)
inactive: viability, T/C [1] 98.4% | viability, T/C [2] 78.3% | viability, T/C [3] 83.7% | viability, T/C [4] 59.4% | viability, T/C [5] 53.5% | viability, T/C [6] 39.1% | viability, T/C [7] 92.8% | viability, T/C [8] 79.2% | viability, T/C [9] 77.6% | viability, T/C [10] 66.8% | viability, T/C [11] 59.2% | viability, T/C [12] 49.7% | viability, T/C [13] 81.6% | viability, T/C [14] 94.8% | viability, T/C [15] 84% | viability, T/C [16] 80.9% | viability, T/C [17] 71.8% | viability, T/C [18] 58.9% | viability, T/C [19] 81.9% | viability, T/C [20] 92% | viability, T/C [21] 91.4% | viability, T/C [22] 91.4% | viability, T/C [23] 81.1% | viability, T/C [24] 56% | viability, T/C [25] 84.6% | viability, T/C [26] 87.3% | viability, T/C [27] 82.4% | viability, T/C [28] 85.5% | viability, T/C [29] 81.6% | viability, T/C [30] 60% | viability, T/C [31] 86.2% | viability, T/C [32] 80.4% | viability, T/C [33] 85.5% | viability, T/C [34] 93.2% | viability, T/C [35] 85.1% | viability, T/C [36] 52.1%

COc1cccc2c1C(=O)c1c(O)c3c(c(O)c1C2=O)CC(O)(C(=O)CO)CC3OC1CC(N)C(O)C(C)O1 (stereo not drawn) + Cc1cnc(CNC(=O)c2c(=O)c3ccc(N4CCCN(C)CC4)nc3n3c2sc2ccccc23)cn1
inactive: viability, T/C [1] 100% | viability, T/C [2] 65.7% | viability, T/C [3] 78.6% | viability, T/C [4] 46.5% | viability, T/C [5] 33.9% | viability, T/C [6] 25.7% | viability, T/C [7] 89.3% | viability, T/C [8] 69.5% | viability, T/C [9] 78.9% | viability, T/C [10] 48.7% | viability, T/C [11] 34.8% | viability, T/C [12] 30.1% | viability, T/C [13] 83.3% | viability, T/C [14] 81.8% | viability, T/C [15] 73% | viability, T/C [16] 51.5% | viability, T/C [17] 37.3% | viability, T/C [18] 30% | viability, T/C [19] 73.3% | viability, T/C [20] 86.8% | viability, T/C [21] 80.1% | viability, T/C [22] 54.8% | viability, T/C [23] 33.7% | viability, T/C [24] 29.5% | viability, T/C [25] 95.4% | viability, T/C [26] 80.4% | viability, T/C [27] 79.2% | viability, T/C [28] 54.7% | viability, T/C [29] 36.5% | viability, T/C [30] 34.2% | viability, T/C [31] 74.2% | viability, T/C [32] 82.6% | viability, T/C [33] 75% | viability, T/C [34] 50.4% | viability, T/C [35] 35.6% | viability, T/C [36] 26.7%
1.29 µM: IC50 (second compound 1 µM)
1.11 µM: IC50 (second compound 10 µM)
1.18 µM: IC50 (second compound 0.316 µM)
1.4 µM: IC50 (second compound 3.16 µM)
0.983 µM: IC50 (second compound 0.0316 µM)
0.961 µM: IC50 (second compound 0.1 µM)

Nc1ccn(C2OC(CO)C(O)C2(F)F)c(=O)n1 (stereo not drawn) + Cc1cnc(CNC(=O)c2c(=O)c3ccc(N4CCCN(C)CC4)nc3n3c2sc2ccccc23)cn1
inactive: viability, T/C [1] 86.7% | viability, T/C [2] 67.8% | viability, T/C [3] 69.1% | viability, T/C [4] 47.2% | viability, T/C [5] 41.9% | viability, T/C [6] 43% | viability, T/C [7] 85.6% | viability, T/C [8] 87% | viability, T/C [9] 70.7% | viability, T/C [10] 48.6% | viability, T/C [11] 50.8% | viability, T/C [12] 54.8% | viability, T/C [13] 96.5% | viability, T/C [14] 81% | viability, T/C [15] 70.3% | viability, T/C [16] 62.3% | viability, T/C [17] 54.1% | viability, T/C [18] 58.1% | viability, T/C [19] 78.2% | viability, T/C [20] 72.7% | viability, T/C [21] 74.3% | viability, T/C [22] 69.2% | viability, T/C [23] 68.3% | viability, T/C [24] 63.4% | viability, T/C [25] 70.5% | viability, T/C [26] 88.6% | viability, T/C [27] 72.4% | viability, T/C [28] 79.8% | viability, T/C [29] 71.2% | viability, T/C [30] 58.4% | viability, T/C [31] 84.9% | viability, T/C [32] 78.4% | viability, T/C [33] 89.5% | viability, T/C [34] 79.2% | viability, T/C [35] 67.2% | viability, T/C [36] 63.4%
> 10 µM: IC50 (second compound 0.1 µM) | IC50 (second compound 0.316 µM) | IC50 (second compound 1 µM) | IC50 (second compound 3.16 µM) | IC50 (second compound 10 µM)
1.19 µM: IC50 (second compound 0.0316 µM)

O=c1[nH]cc(F)c(=O)[nH]1 + Cc1cnc(CNC(=O)c2c(=O)c3ccc(N4CCCN(C)CC4)nc3n3c2sc2ccccc23)cn1
> 10 µM: IC50 (second compound 0.0316 µM) | IC50 (second compound 0.1 µM) | IC50 (second compound 0.316 µM) | IC50 (second compound 1 µM) | IC50 (second compound 3.16 µM) | IC50 (second compound 10 µM)
inactive: viability, T/C [1] 90% | viability, T/C [2] 93.1% | viability, T/C [3] 88.2% | viability, T/C [4] 88.8% | viability, T/C [5] 78% | viability, T/C [6] 78.7% | viability, T/C [7] 94.5% | viability, T/C [8] 79.6% | viability, T/C [9] 89.4% | viability, T/C [10] 95.5% | viability, T/C [11] 85.8% | viability, T/C [12] 87.5% | viability, T/C [13] 85.6% | viability, T/C [14] 69.4% | viability, T/C [15] 96.1% | viability, T/C [16] 83.3% | viability, T/C [17] 89.7% | viability, T/C [18] 92.2% | viability, T/C [19] 88.6% | viability, T/C [20] 85.8% | viability, T/C [21] 85.2% | viability, T/C [22] 104% | viability, T/C [23] 105% | viability, T/C [24] 104% | viability, T/C [25] 83.1% | viability, T/C [26] 85.2% | viability, T/C [27] 93.5% | viability, T/C [28] 83.3% | viability, T/C [29] 99.8% | viability, T/C [30] 82.8% | viability, T/C [31] 81.8% | viability, T/C [32] 78.4% | viability, T/C [33] 85.7% | viability, T/C [34] 80.6% | viability, T/C [35] 87.5% | viability, T/C [36] 76.4%
